Assays:
[1] = test system: Influenza strain A549 A/WSN/33 (H1N1); assay: microbe, parasite or virus in culture; format: cell-based; conditions: Influenza A virus, A549, 20 h, A549 cells, influenza A/WSN/33 (H1N1), 20 hours incubation; read-out: A549_A(H1N1) EC50
in vitro = conditions: human, CC50, uninfected A549 cells, CellTiter-Glo

Compound | EC50 [1] [nM] | CC50 (in vitro) [nM]
O=C1c2c(O)c(=O)ccn2N2CN1C1(/C=C/COc3cccc4c3[C@@H]2c2ccccc2SC4)CC1 (single isomer, unassigned) [Compound 107A, (17a′*R,*E)-12′-hydroxy-2′,17a′-dihydro-6′H-spiro[cyclopropane-1,9′-[3,4](epiprop[1]en[1]yl[3]ylidene)[10,17]methanobenzo[6,7]thiepino[4,5-c]pyrido[1,2-f][1]oxa[5,6,9]triazacyclotridecine]-11′,13′-dione] | > 100 | > 200
O=C1c2c(O)c(=O)ccn2N2CN1C1(/C=C/COc3cccc4c3[C@H]2c2ccccc2SC4)CC1 (single isomer, unassigned) [Compound 107B, (17a′*S,*E)-12′-hydroxy-2′,17a′-dihydro-6′H-spiro[cyclopropane-1,9′-[3,4](epiprop[1]en[1]yl[3]ylidene)[10,17]methanobenzo[6,7]thiepino[4,5-c]pyrido[1,2-f][1]oxa[5,6,9]triazacyclotridecine]-11′,13′-dione] | 1 | > 100
O=C1c2c(O)c(=O)ccn2N2CN1C1(/C=C/COc3cc(F)c(F)c4c3[C@@H]2c2ccccc2SC4)CC1 (single isomer, unassigned) [Compound 108A, (17a′*R,*E)-24′,25′-difluoro-12′-hydroxy-2′,17a′-dihydro-6′H-spiro[cyclopropane-1,9′-[3,4](epiprop[1]en[1]yl[3]ylidene)[10,17]methanobenzo[6,7]thiepino[4,5-c]pyrido[1,2-f][1]oxa[5,6,9]triazacyclotridecine]-11′,13′-dione] | 840 | 22600
O=C1c2c(O)c(=O)ccn2N2CN1C1(/C=C/COc3cc(F)c(F)c4c3[C@H]2c2ccccc2SC4)CC1 (single isomer, unassigned) [Compound 108B, (17a′*S,*E)-24′,25′-difluoro-12′-hydroxy-2′,17a′-dihydro-6′H-spiro[cyclopropane-1,9′-[3,4](epiprop[1]en[1]yl[3]ylidene)[10,17]methanobenzo[6,7]thiepino[4,5-c]pyrido[1,2-f][1]oxa[5,6,9]triazacyclotridecine]-11′,13′-dione] | 0.2 | > 50
O=C1c2c(O)c(=O)ccn2N2CN1C1(/C=C\COc3cc(F)c(F)c4c3[C@@H]2c2ccccc2SC4)CC1 (single isomer, unassigned) [Compound 108C] | > 100 | > 200
O=C1c2c(O)c(=O)ccn2N2CN1C1(/C=C\COc3cc(F)c(F)c4c3[C@H]2c2ccccc2SC4)CC1 (single isomer, unassigned) [Compound 108D] | 0.9 | > 200
COC[C@@H]1N2C/C=C\COc3ccccc3[C@@H](c3ccccc3)N1n1ccc(=O)c(O)c1C2=O (single isomer, unassigned) [Compound 109A, (18*R,19*R,*Z)-12-hydroxy-19-(methoxymethyl)-18-phenyl-6,9-dihydro-18H-10,17-methanobenzo[b]pyrido[1,2-f][1]oxa[5,6,9]triazacyclotridecine-11,13-dione] | 6.6 | > 200
COC[C@H]1N2C/C=C\COc3ccccc3[C@H](c3ccccc3)N1n1ccc(=O)c(O)c1C2=O (single isomer, unassigned) [Compound 109B, (18*S,19*S,*Z)-12-hydroxy-19-(methoxymethyl)-18-phenyl-6,9-dihydro-18H-10,17-methanobenzo[b]pyrido[1,2-f][1]oxa[5,6,9]triazacyclotridecine-11,13-dione] | > 100 | > 200
Cc1cccc2c1OC/C=C\CN1CN([C@H]2c2ccccc2)n2ccc(=O)c(O)c2C1=O (single isomer, unassigned) [Compound 110A, (18*S,Z)-12-hydroxy-4-methyl-18-phenyl-6,9-dihydro-18H-10,17-methanobenzo[b]pyrido[1,2-f][1]oxa[5,6,9]triazacyclotridecine-11,13-dione] | 6.4 | > 200
Cc1cccc2c1OC/C=C\CN1CN([C@@H]2c2ccccc2)n2ccc(=O)c(O)c2C1=O (single isomer, unassigned) [Compound 110B, (18*R,Z)-12-hydroxy-4-methyl-18-phenyl-6,9-dihydro-18H-10,17-methanobenzo[b]pyrido[1,2-f][1]oxa[5,6,9]triazacyclotridecine-11,13-dione] | > 100 | > 200
O=C1c2c(O)c(=O)ccn2N2CN1CC/C=C/COc1c(ccc(Cl)c1Cl)[C@@H]2c1ccccc1 (single isomer, unassigned) [Compound 111A, (2*S,*E)-33,34-dichloro-15-hydroxy-2-phenyl-12,13,14,16-tetrahydro-11H-4-oxa-1(1,3)-pyrido[2,1-f][1,2,4]triazina-3(1,2)-benzenacyclononaphan-6-ene-14,16-dione] | 4.3 | > 200
O=C1c2c(O)c(=O)ccn2N2CN1CC/C=C/COc1c(ccc(F)c1F)[C@@H]2c1ccccc1 (single isomer, unassigned) [Compound 112A, (2*S,E)-33,34-difluoro-15-hydroxy-2-phenyl-12,13,14,16-tetrahydro-11H-4-oxa-1(1,3)-pyrido[2,1-f][1,2,4]triazina-3(1,2)-benzenacyclononaphan-6-ene-14,16-dione] | 3.8 | > 200
O=C1c2c(O)c(=O)ccn2N2CN1C1(/C=C/COc3c(ccc(Cl)c3Cl)[C@H]2c2ccccc2)CC1 (single isomer, unassigned) [Compound 113A, (18′*R,*E)-3′,4′-dichloro-12′-hydroxy-18′-phenyl-6′H,18′H-spiro[cyclopropane-1,9′-[10,17]methanobenzo[b]pyrido[1,2-f][1]oxa[5,6,9]triazacyclotridecine]-11′,13′-dione] | > 100 | > 200
O=C1c2c(O)c(=O)ccn2N2CN1C1(/C=C/COc3c(ccc(Cl)c3Cl)[C@@H]2c2ccccc2)CC1 (single isomer, unassigned) [Compound 113B, (18′*S,*E)-3′,4′-dichloro-12′-hydroxy-18′-phenyl-6′H,18′H-spiro[cyclopropane-1,9′-[10,17]methanobenzo[b]pyrido[1,2-f][1]oxa[5,6,9]triazacyclotridecine]-11′,13′-dione] | 2 | > 200
O=C1c2c(O)c(=O)ccn2N2CN1CCCCOc1c(F)cccc1[C@H]2c1ccccc1 (single isomer, unassigned) [Compound 114A, (18*R)-4-fluoro-12-hydroxy-18-phenyl-6,7,8,9-tetrahydro-18H-10,17-methanobenzo[b]pyrido[1,2-f][1]oxa[5,6,9]triazacyclotridecine-11,13-dione] | 7 | > 200
O=C1c2c(O)c(=O)ccn2N2CN1CCCCOc1c(F)cccc1[C@@H]2c1ccccc1 (single isomer, unassigned) [Compound 114B, (18*S)-4-fluoro-12-hydroxy-18-phenyl-6,7,8,9-tetrahydro-18H-10,17-methanobenzo[b]pyrido[1,2-f][1]oxa[5,6,9]triazacyclotridecine-11,13-dione] | > 100 | > 200
O=C1c2c(O)c(=O)ccn2N2CN1CCCCOc1c(ccc(F)c1F)[C@H]2c1ccccc1 (single isomer, unassigned) [Compound 115A, (18*R)-3,4-difluoro-12-hydroxy-18-phenyl-6,7,8,9-tetrahydro-18H-10,17-methanobenzo[b]pyrido[1,2-f][1]oxa[5,6,9]triazacyclotridecine-11,13-dione] | > 100 | > 200
O=C1c2c(O)c(=O)ccn2N2CN1CCCCOc1c(ccc(F)c1F)[C@@H]2c1ccccc1 (single isomer, unassigned) [Compound 115B, (18*S)-3,4-difluoro-12-hydroxy-18-phenyl-6,7,8,9-tetrahydro-18H-10,17-methanobenzo[b]pyrido[1,2-f][1]oxa[5,6,9]triazacyclotridecine-11,13-dione] | 4.4 | > 200
O=C1c2c(O)c(=O)ccn2N2CN1CC/C=C\COc1c(ccc(F)c1F)[C@@H]2c1ccccc1 (single isomer, unassigned) [Compound 116A, (2*S,Z)-33,34-difluoro-15-hydroxy-2-phenyl-12,13,14,16-tetrahydro-11H-4-oxa-1(1,3)-pyrido[2,1-f][1,2,4]triazina-3(1,2)-benzenacyclononaphan-6-ene-14,16-dione] | 14 | > 200
COc1ccccc1[C@@H]1c2cccc(F)c2OC/C=C\CN2CN1n1ccc(=O)c(O)c1C2=O (single isomer, unassigned) [Compound 117A, (18*R,*Z)-4-fluoro-12-hydroxy-18-(2-methoxyphenyl)-6,9-dihydro-18H-10,17-methanobenzo[b]pyrido[1,2-f][1]oxa[5,6,9]triazacyclotridecine-11,13-dione] | 29 | > 200
COc1ccccc1[C@H]1c2cccc(F)c2OC/C=C\CN2CN1n1ccc(=O)c(O)c1C2=O (single isomer, unassigned) [Compound 117B, (18*S,*Z)-4-fluoro-12-hydroxy-18-(2-methoxyphenyl)-6,9-dihydro-18H-10,17-methanobenzo[b]pyrido[1,2-f][1]oxa[5,6,9]triazacyclotridecine-11,13-dione] | > 100 | > 200
O=C1c2c(O)c(=O)ccn2N2CN1C[C@H]1C[C@H]1COc1cccc3c1[C@H]2c1ccccc1SC3 (single isomer, unassigned) [Compound 118AA, (1a*R,11b*S,20a*S)-17-hydroxy-1a,2,6,11 b,17,17a,20,20a-octahydro-1H-5,4-(epiprop[1]en[1]yl[3]ylidene)-12,19-methanobenzo[6,7]thiepino[4,5-c]cyclopropa[k]pyrido[1,2-f][1]oxa[5,6,9]triazacyclotridecine-16,18-dione] | 6.2 | > 200

Source: patent US11312727B1, “Macrocyclic flu endonuclease inhibitors” (Janssen BioPharma, Inc., priority 2018, dated 2022)
